Here are results for 29 compounds from ChEMBL document CHEMBL3745704, “Novel nonsecosteroidal VDR ligands with phenyl-pyrrolyl pentane skeleton for cancer therapy” (Eur J Med Chem, 2016).

Data set [1] in a line: Antipoliferative activity against human PC3 cells after 48 hrs by MTT assay. The data set is classed as functional, cell-based. Conditions: PC-3, 48 h.
Data set [2] has as its system HepG2. As to the kind of experiment: Antipoliferative activity against human HepG2 cells after 48 hrs by MTT assay. The data set is classed as functional, cell-based. Conditions: HepG2, 48 h.
For data set [3], the system named is Rattus norvegicus. Nature of the data set: Toxicity in rat assessed as hypercalcemic activity at 30 mg/kg/day administered for 7 days. The data set is classed as organism-based. Conditions: in vivo, 168 h.
The subject of data set [4] is MCF7. Nature of the data set: Antipoliferative activity against human MCF7 cells after 48 hrs by MTT assay. Conditions: MCF7, 48 h. The data set is classed as functional, cell-based.
A short description of data set [5]: Cytotoxicity against human L02 cells after 48 hrs by MTT assay. Conditions: L02, 48 h. The data set is classed as cell-based.
Data set [6] is described as follows: Antipoliferative activity against human Caco2 cells after 48 hrs by MTT assay. The data set is classed as functional, cell-based. Conditions: Caco-2, 48 h.
Data set [7] has as its system Rattus norvegicus. As to the kind of experiment: Toxicity in rat assessed as hypercalcemic activity at 10 mg/kg/day administered for 7 days. Conditions: in vivo, 168 h. The data set is classed as organism-based.
For data set [8], the target named is T1, Vitamin D3 receptor (Homo sapiens, UniProt P11473).
T1 sequence (P11473 whole entry): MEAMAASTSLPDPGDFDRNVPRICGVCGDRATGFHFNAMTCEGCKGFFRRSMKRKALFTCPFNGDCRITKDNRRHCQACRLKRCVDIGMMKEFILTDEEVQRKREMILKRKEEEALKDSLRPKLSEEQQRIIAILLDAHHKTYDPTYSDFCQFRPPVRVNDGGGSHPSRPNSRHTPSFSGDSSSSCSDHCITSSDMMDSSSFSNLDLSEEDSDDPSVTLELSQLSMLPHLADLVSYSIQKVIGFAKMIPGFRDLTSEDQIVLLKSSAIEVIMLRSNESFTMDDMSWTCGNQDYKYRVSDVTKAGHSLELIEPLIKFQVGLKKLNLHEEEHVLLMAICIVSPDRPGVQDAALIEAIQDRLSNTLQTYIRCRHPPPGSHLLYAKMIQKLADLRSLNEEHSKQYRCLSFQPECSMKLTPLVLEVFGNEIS
Nature of the data set: Binding affinity to vitamin D3 receptor (unknown origin) after 4 hrs using fluormone VDR red by polar screen VDR competitor assay.

For data set [9], the system named is Rattus norvegicus. Nature of the data set: Toxicity in rat assessed as hypercalcemic activity at 0.5 mg/kg/day administered for 7 days. The data set is classed as organism-based. Conditions: in vivo, 168 h.
Data set [10] deals with Rattus norvegicus. As to the kind of experiment: Toxicity in rat assessed as serum calcium level at 0.5 ug/kg/day administered for 7 days (reference value: 7.25 mg/dl). The data set is classed as organism-based. Conditions: in vivo, 0.0005 mg/kg, 168 h.

Take `CCC(CC)(c1ccc(OCC(=O)C(C)(C)C)c(C)c1)c1ccc(OCC(=O)C(C)(C)C)c(C)c1`: the IC50 is greater than 50 µM in data set [1]; greater than 50 µM in [2]; 7.8 µM in data set [4]; 5.1 µM in [5]; 16.9 µM in data set [6]. For the same compound, the Activity result in [3] is “Non-toxic”.
Regarding `CCn1c(C(=O)N[C@@H](C)CO)ccc1C(CC)(CC)c1ccc(OCC(O)C(C)(C)C)c(C)c1` (some centres not stated), the IC50 in [1] was 17.5 µM; in data set [2] it was 47.6 µM; in data set [4], 2.8 µM; in data set [5], 17.3 µM; in [6] it was greater than 50 µM. The Activity result in data set [3] is given as “Non-toxic”.
As for `CCn1c(C(=O)N(C)CCC#N)ccc1C(CC)(CC)c1ccc(OCC(O)C(C)(C)C)c(C)c1` (configuration not stated), the IC50 in [1] was 1.7 µM; in data set [2], greater than 50 µM; in [4], greater than 50 µM; in data set [5], 14.9 µM; in data set [6] it was greater than 50 µM.
For the compound `CCn1c(C(=O)NCCCN2CCOCC2)ccc1C(CC)(CC)c1ccc(OCC(O)C(C)(C)C)c(C)c1` (configuration not stated), the IC50 in [1] came out at 0.0079 µM; in data set [2], 1.29 µM; in data set [8] it was 1.19 µM; in data set [4], 2.07 µM; in data set [5], 0.81 µM; in [6], 5.9 µM. Further, the Activity result in data set [7], in data set [3] and in data set [9] was “Non-toxic” throughout.
With `CCN(CC)CCNC(=O)c1ccc(C(CC)(CC)c2ccc(OCC(=O)C(C)(C)C)c(C)c2)n1CC`, the IC50 in [1] was found to be 0.03 µM; in [2], 0.62 µM; in [4], 0.69 µM; in data set [5] it was 2.5 µM; in data set [6] it was 1.6 µM.
With `CCn1c(C(=O)N(C)CC(=O)O)ccc1C(CC)(CC)c1ccc(OCC(=O)C(C)(C)C)c(C)c1`, the IC50 in data set [1] was found to be 18.4 µM; in [2], 25.2 µM; in [4] it was 28.6 µM; in [5], 8.7 µM; in [6], 35.9 µM.
Consider `CCn1c(C(=O)N(CCC#N)CCC#N)ccc1C(CC)(CC)c1ccc(OCC(O)C(C)(C)C)c(C)c1` (configuration not stated), for which the IC50 is 7.8 µM in data set [1]; 42 µM in data set [2]; greater than 10 µM in data set [8]; 0.48 µM in data set [4]; 1.7 µM in data set [5]; 7.1 µM in data set [6].
`CCn1c(C(=O)NCCCN(C)C)ccc1C(CC)(CC)c1ccc(OCC(O)C(C)(C)C)c(C)c1` (configuration not stated): the IC50 worked out at 3.1 µM in data set [1]; 0.36 µM in [2]; 0.197 µM in [8]; 0.49 µM in [4]; 0.47 µM in data set [5]; 1.9 µM in data set [6].
In the case of `CCn1c(C(=O)NCCN(C)C)ccc1C(CC)(CC)c1ccc(OCC(O)C(C)(C)C)c(C)c1` (configuration not stated), the IC50 in [1] was found to be 1.63 µM; in [2] it was 0.87 µM; in [4] it was 0.66 µM; in [5], 2.6 µM; in data set [6], 1.3 µM.
Take `C=CCN(C)C(=O)c1ccc(C(CC)(CC)c2ccc(OCC(O)C(C)(C)C)c(C)c2)n1CC` (configuration not stated): the half-inhibitory concentration (IC50) in data set [1] was 25.9 µM; in data set [2] it was greater than 50 µM; in data set [4], greater than 50 µM; in [5], 6.3 µM; in [6] it was greater than 50 µM.
Turning to `CCn1c(C(=O)Oc2ccc(CCO)cc2)ccc1C(CC)(CC)c1ccc(OCC(O)C(C)(C)C)c(C)c1` (configuration not stated), the concentration for half-maximal inhibition (IC50) was 6.3 µM in data set [1]; greater than 50 µM in data set [2]; greater than 50 µM in data set [4]; 22.7 µM in data set [5]; greater than 50 µM in data set [6].
For `CCn1c(C(=O)N(C)CC(=O)O)ccc1C(CC)(CC)c1ccc(OCC(O)C(C)(C)C)c(C)c1` (configuration not stated), the IC50 in data set [1] stood at 23.9 µM; in data set [2], 17.1 µM; in data set [4] it was 25.4 µM; in [5], 32.6 µM; in data set [6], 31.9 µM.
As to `CCn1c(C(=O)OCc2ccc(F)cc2)ccc1C(CC)(CC)c1ccc(OCC(O)C(C)(C)C)c(C)c1` (configuration not stated), the IC50 in [1] was greater than 50 µM; in data set [2] it was greater than 50 µM; in [4] it was greater than 50 µM; in [5] it was 14.9 µM; in [6] it was greater than 50 µM.
Take `CCn1c(C(=O)NCCN)ccc1C(CC)(CC)c1ccc(OCC(O)C(C)(C)C)c(C)c1` (configuration not stated): the IC50 amounted to 0.94 µM in [1]; 0.176 µM in [2]; 0.194 µM in data set [8]; 0.0059 µM in data set [4]; 2.4 µM in [5]; 1 µM in [6]. The Activity result in [7], in data set [3] and in [9] was “Non-toxic” in each case.
On to `C#CCNC(=O)c1ccc(C(CC)(CC)c2ccc(OCC(O)C(C)(C)C)c(C)c2)n1CC` (configuration not stated), for which the IC50 was 16.2 µM in data set [1]; greater than 50 µM in data set [2]; greater than 10 µM in data set [8]; greater than 50 µM in data set [4]; 4.4 µM in data set [5]; 39.1 µM in data set [6].
As for `C#CC(C)OC(=O)c1ccc(C(CC)(CC)c2ccc(OCC(O)C(C)(C)C)c(C)c2)n1CC` (configuration not stated), the IC50 in data set [1] was 38.2 µM; in data set [2], greater than 50 µM; in [4], greater than 50 µM; in data set [5] it was 23.7 µM; in data set [6], greater than 50 µM.
Turning to `CCn1c(C(=O)NCCCN2CCOCC2)ccc1C(CC)(CC)c1ccc(OCC(=O)C(C)(C)C)c(C)c1`, the concentration for half-maximal inhibition (IC50) in data set [1] is 0.011 µM; in data set [2] it was 1.6 µM; in [8], 3.52 µM; in [4], 5.2 µM; in [5] it was 0.31 µM; in data set [6], 3.6 µM.
Regarding `CCn1c(C(=O)NCCN)ccc1C(CC)(CC)c1ccc(OCC(=O)C(C)(C)C)c(C)c1`, the IC50 in data set [1] is 0.48 µM; in data set [2], 0.18 µM; in [8], 1.01 µM; in data set [4], 0.075 µM; in [5], 2.5 µM; in data set [6], 1.9 µM.
As to `CCN(CC)CCCNC(=O)c1ccc(C(CC)(CC)c2ccc(OCC(=O)C(C)(C)C)c(C)c2)n1CC`, the IC50 in data set [1] was 1.8 µM; in data set [2] it was 0.18 µM; in data set [8], 0.863 µM; in data set [4], 0.53 µM; in data set [5], 2.3 µM; in data set [6], 1 µM.
`CCn1c(C(=O)NCCN(C)C)ccc1C(CC)(CC)c1ccc(OCC(=O)C(C)(C)C)c(C)c1`: the IC50 in [1] was found to be 2.3 µM; in data set [2], 2.3 µM; in [4], 0.52 µM; in data set [5] it was 2.5 µM; in data set [6] it was 1.6 µM.
Take `CC[C@@H](C)[C@H](NC(=O)c1ccc(C(CC)(CC)c2ccc(OCC(=O)C(C)(C)C)c(C)c2)n1CC)C(=O)O`: the IC50 amounted to 1.6 µM in [1]; 0.247 µM in data set [2]; 0.564 µM in [8]; 0.16 µM in data set [4]; 1.5 µM in data set [5]; 4.5 µM in data set [6].
For `CCOc1ccc(NC(=O)c2ccc(C(CC)(CC)c3ccc(OCC(O)C(C)(C)C)c(C)c3)n2CC)cc1` (configuration not stated), the IC50 in data set [8] worked out at 9.25 µM.
Turning to `CCN(CC)CCNC(=O)c1ccc(C(CC)(CC)c2ccc(OCC(O)C(C)(C)C)c(C)c2)n1CC` (configuration not stated), the half-maximal inhibitory concentration (IC50) in data set [1] was 0.22 µM; in data set [2], 0.49 µM; in data set [4] it was 0.69 µM; in [5] it was 2.5 µM; in data set [6], 2.31 µM.
With `CCn1c(C(=O)NCC(OC)OC)ccc1C(CC)(CC)c1ccc(OCC(O)C(C)(C)C)c(C)c1` (configuration not stated), the IC50 is 14.6 µM in data set [1]; 23.2 µM in [2]; 5.23 µM in data set [8]; greater than 50 µM in data set [4]; 22.2 µM in data set [5]; greater than 50 µM in data set [6].
As to `CCn1c(C(=O)NCCCN(C)C)ccc1C(CC)(CC)c1ccc(OCC(=O)C(C)(C)C)c(C)c1`, the IC50 in data set [1] amounted to 1.6 µM; in data set [2], 0.96 µM; in data set [4], 0.34 µM; in data set [5], 0.67 µM; in data set [6], 1.4 µM.
The like results for `CCOC(=O)CN(C)C(=O)c1ccc(C(CC)(CC)c2ccc(OCC(O)C(C)(C)C)c(C)c2)n1CC` (configuration not stated) were, in that order, 25.5 µM, greater than 50 µM, 9.2 µM, 10.1 µM and 12.2 µM.
On to `CC[C@@H](C)[C@H](NC(=O)c1ccc(C(CC)(CC)c2ccc(OCC(O)C(C)(C)C)c(C)c2)n1CC)C(=O)O` (some centres not stated), for which the IC50 in data set [1] amounted to 1.9 µM; in [2], 0.127 µM; in data set [8] it was 0.389 µM; in data set [4], 2 µM; in [5] it was 1.4 µM; in [6], 3.4 µM.
`CCN(CC)CCCNC(=O)c1ccc(C(CC)(CC)c2ccc(OCC(O)C(C)(C)C)c(C)c2)n1CC` (configuration not stated): the IC50 in data set [1] came out at 2.5 µM; in data set [2], 1.1 µM; in [8], 0.0711 µM; in [4] it was 0.19 µM; in data set [5], 2.5 µM; in data set [6], 1.8 µM.
Consider `C=C1/C(=C\C=C2/CCC[C@]3(C)[C@@H]([C@H](C)CCCC(C)(C)O)CC[C@@H]23)C[C@@H](O)C[C@@H]1O` [CALCITRIOL], for which, in data set [10], the Activity turned out to be 13.11 mg/dL.
